Data as given in ChEMBL document CHEMBL3826915, “Design and comparative anticonvulsant activity assessment of CNS-active alkyl-carbamoyl imidazole derivatives” (Bioorg Med Chem, 2016).
Activity calls are given as the source filed them. No cut-off for these calls is given here.

How the values were obtained:
[1] = tested on: Mus musculus; assay: Neurotoxicity in albino CF1 mouse assessed as behavioral impairment at 50 mg/kg, ip after 0.25 hrs by rotorod test; assay type: toxicity, organism-based; details: in vivo
[2] = tested on: Mus musculus; assay: Anticonvulsant activity in ip dosed albino CF1 mouse assessed as protection against 6 Hz current-induced seizure by measuring time to peak effect; assay type: functional
[3] = Protective index, ratio of TD50 for neurotoxicity in ip dosed albino CF1 mouse to ED50 for anticonvulsant activity in ip dosed 6 Hz current-induced seizure albino CF1 mouse model; details: in vivo
[4] = tested on: Mus musculus; assay: Anticonvulsant activity in albino CF1 mouse assessed as protection against 32 mA current-induced seizure at 300 mg/kg, ip after 0.5 hrs by 6 Hz psychomotor test; assay type: functional, organism-based
[5] = tested on: Mus musculus; assay: Neurotoxicity in albino CF1 mouse assessed as behavioral impairment at 30 mg/kg, ip after 2 hrs by rotorod test; assay type: toxicity, organism-based; details: in vivo
[6] = Neurotoxicity in ip dosed albino CF1 mouse assessed as motor impairment by rotorod test; assay type: toxicity, organism-based; details: in vivo
[7] = tested on: Mus musculus; assay: Neurotoxicity in albino CF1 mouse assessed as behavioral impairment at 50 mg/kg, ip after 1 hr by rotorod test; assay type: toxicity, organism-based; details: in vivo
[8] = Protective index, ratio of TD50 for neurotoxicity in ip dosed albino Sprague-Dawley rat to ED50 for anticonvulsant activity in ip dosed subcutaneous metrazol-induced seizure albino Sprague-Dawley rat model; assay type: toxicity, organism-based; details: in vivo, read-out: Ratio TD50/ED50
[9] = tested on: Mus musculus; assay: Anticonvulsant activity in ip dosed albino CF1 mouse assessed as protection against subcutaneous metrazol-induced seizures; assay type: functional
[10] = tested on: Mus musculus; assay: Anticonvulsant activity in ip dosed albino CF1 mouse assessed as protection against subcutaneous metrazol-induced seizures by measuring time to peak effect; assay type: functional
[11] = Protective index, ratio of TD50 for neurotoxicity in ip dosed albino CF1 mouse to ED50 for anticonvulsant activity in ip dosed maximal electroshock-induced seizure albino CF1 mouse model; assay type: toxicity, organism-based; details: in vivo, read-out: Ratio TD50/ED50
[12] = tested on: Rattus norvegicus; assay: Anticonvulsant activity in albino Sprague-Dawley rat assessed as protection against maximal electroshock-induced seizures at 30 mg/kg, po after 2 hrs; assay type: functional, organism-based
[13] = tested on: Mus musculus; assay: Anticonvulsant activity in albino CF1 mouse assessed as protection against 32 mA current-induced seizure at 30 mg/kg, ip after 0.5 hrs by 6 Hz psychomotor test; assay type: functional, organism-based
[14] = tested on: Rattus norvegicus; assay: Neurotoxicity in albino Sprague-Dawley rat assessed as behavioral impairment at 30 mg/kg, po after 2 hrs by rotorod test; assay type: toxicity, organism-based; details: in vivo
[15] = Protective index, ratio of TD50 for neurotoxicity in ip dosed albino Sprague-Dawley rat to ED50 for anticonvulsant activity in ip dosed maximal electroshock-induced seizure albino Sprague-Dawley rat model; assay type: toxicity, organism-based; details: in vivo, read-out: Ratio TD50/ED50
[16] = tested on: Rattus norvegicus; assay: Anticonvulsant activity in albino Sprague-Dawley rat assessed as protection against maximal electroshock-induced seizures at 30 mg/kg, po after 0.5 hrs; assay type: functional, organism-based
[17] = tested on: Mus musculus; assay: Anticonvulsant activity in albino CF1 mouse assessed as protection against 32 mA current-induced seizure at 100 mg/kg, ip after 2 hrs by 6 Hz psychomotor test; assay type: functional, organism-based
[18] = tested on: Rattus norvegicus; assay: Neurotoxicity in albino Sprague-Dawley rat assessed as behavioral impairment at 30 mg/kg, po after 1 hr by rotorod test; assay type: toxicity, organism-based; details: in vivo
[19] = tested on: Rattus norvegicus; assay: Neurotoxicity in albino Sprague-Dawley rat assessed as behavioral impairment at 30 mg/kg, ip after 2 hrs by rotorod test; assay type: toxicity, organism-based; details: in vivo
[20] = tested on: Mus musculus; assay: Anticonvulsant activity in albino CF1 mouse assessed as protection against 32 mA current-induced seizure at 100 mg/kg, ip after 0.5 hrs by 6 Hz psychomotor test; assay type: functional, organism-based
[21] = tested on: Rattus norvegicus; assay: Anticonvulsant activity in albino Sprague-Dawley rat assessed as protection against maximal electroshock-induced seizures at 30 mg/kg, ip after 0.25 hrs; assay type: functional, organism-based
[22] = tested on: Rattus norvegicus; assay: Neurotoxicity in albino Sprague-Dawley rat assessed as behavioral impairment at 30 mg/kg, po after 0.5 hrs by rotorod test; assay type: toxicity, organism-based; details: in vivo
[23] = tested on: Rattus norvegicus; assay: Neurotoxicity in albino Sprague-Dawley rat assessed as behavioral impairment at 30 mg/kg, ip after 1 hr by rotorod test; assay type: toxicity, organism-based; details: in vivo
[24] = tested on: Rattus norvegicus; assay: Neurotoxicity in albino Sprague-Dawley rat assessed as behavioral impairment at 30 mg/kg, po after 0.25 hrs by rotorod test; assay type: toxicity, organism-based; details: in vivo
[25] = tested on: Rattus norvegicus; assay: Anticonvulsant activity in ip dosed albino Sprague-Dawley rat assessed as protection against subcutaneous metrazol-induced seizures; assay type: functional
[26] = tested on: Rattus norvegicus; assay: Anticonvulsant activity in albino Sprague-Dawley rat assessed as protection against maximal electroshock-induced seizures at 30 mg/kg, po after 1 hr; assay type: functional, organism-based
[27] = tested on: Mus musculus; assay: Anticonvulsant activity in albino CF1 mouse assessed as protection against 32 mA current-induced seizure at 30 mg/kg, ip after 2 hrs by 6 Hz psychomotor test; assay type: functional, organism-based
[28] = tested on: Rattus norvegicus; assay: Anticonvulsant activity in albino Sprague-Dawley rat assessed as protection against maximal electroshock-induced seizures at 30 mg/kg, ip after 2 hrs; assay type: functional, organism-based
[29] = tested on: Mus musculus; assay: Anticonvulsant activity in albino CF1 mouse assessed as protection against maximal electroshock-induced seizures at 100 mg/kg, ip after 0.5 hrs; assay type: functional, organism-based
[30] = tested on: Mus musculus; assay: Neurotoxicity in albino CF1 mouse assessed as behavioral impairment at 300 mg/kg, ip after 0.5 hrs by rotorod test; assay type: toxicity, organism-based; details: in vivo
[31] = tested on: Mus musculus; assay: Anticonvulsant activity in albino CF1 mouse assessed as protection against 44 mA current-induced seizure at 50 mg/kg, ip after 0.25 hrs by 6 Hz psychomotor test; assay type: functional, organism-based
[32] = tested on: Mus musculus; assay: Anticonvulsant activity in albino CF1 mouse assessed as protection against 32 mA current-induced seizure at 300 mg/kg, ip after 2 hrs by 6 Hz psychomotor test; assay type: functional, organism-based
[33] = Protective index, ratio of TD50 for neurotoxicity in ip dosed albino CF1 mouse to ED50 for anticonvulsant activity in ip dosed […] metrazol-induced seizure albino CF1 mouse model; assay type: toxicity, organism-based; details: in vivo, read-out: Ratio TD50/ED50
[34] = tested on: Rattus norvegicus; assay: Neurotoxicity in albino Sprague-Dawley rat assessed as behavioral impairment at 30 mg/kg, ip after 0.25 hrs by rotorod test; assay type: toxicity, organism-based; details: in vivo
[35] = tested on: Mus musculus; assay: Neurotoxicity in albino CF1 mouse assessed as behavioral impairment at 50 mg/kg, ip after 2 hrs by rotorod test; assay type: toxicity, organism-based; details: in vivo
[36] = tested on: Mus musculus; assay: Neurotoxicity in albino CF1 mouse assessed as behavioral impairment at 30 mg/kg, ip after 0.5 hrs by rotorod test; assay type: toxicity, organism-based; details: in vivo
[37] = tested on: Mus musculus; assay: Neurotoxicity in albino CF1 mouse assessed as behavioral impairment at 300 mg/kg, ip after 2 hrs by rotorod test; assay type: toxicity, organism-based; details: in vivo
[38] = tested on: Rattus norvegicus; assay: Neurotoxicity in albino Sprague-Dawley rat assessed as behavioral impairment at 30 mg/kg, ip after 0.5 hrs by rotorod test; assay type: toxicity, organism-based; details: in vivo
[39] = tested on: Rattus norvegicus; assay: Anticonvulsant activity in ip dosed albino Sprague-Dawley rat assessed as protection against subcutaneous metrazol-induced seizures by measuring time to peak effect; assay type: functional
[40] = tested on: Mus musculus; assay: Anticonvulsant activity in ip dosed albino CF1 mouse assessed as protection against maximal electroshock-induced seizures; assay type: functional
[41] = tested on: Mus musculus; assay: Anticonvulsant activity in ip dosed albino CF1 mouse assessed as protection against 6 Hz current-induced seizures by psychomotor test; assay type: functional
[42] = Neurotoxicity in ip dosed albino Sprague-Dawley rat assessed as motor impairment by rotorod test; assay type: toxicity, organism-based; details: in vivo
[43] = tested on: Mus musculus; assay: Anticonvulsant activity in albino CF1 mouse assessed as protection against maximal electroshock-induced seizures at 30 mg/kg, ip after 2 hrs; assay type: functional, organism-based
[44] = tested on: Mus musculus; assay: Anticonvulsant activity in albino CF1 mouse assessed as protection against maximal electroshock-induced seizures at 300 mg/kg, ip after 0.5 hrs; assay type: functional, organism-based
[45] = tested on: Rattus norvegicus; assay: Anticonvulsant activity in albino Sprague-Dawley rat assessed as protection against maximal electroshock-induced seizures at 30 mg/kg, ip after 0.5 hrs; assay type: functional, organism-based
[46] = tested on: Rattus norvegicus; assay: Anticonvulsant activity in ip dosed albino Sprague-Dawley rat assessed as protection against maximal electroshock-induced seizures by measuring time to peak effect; assay type: functional
[47] = tested on: Mus musculus; assay: Anticonvulsant activity in ip dosed albino CF1 mouse assessed as protection against maximal electroshock-induced seizures by measuring time to peak effect; assay type: functional
[48] = tested on: Rattus norvegicus; assay: Anticonvulsant activity in ip dosed albino Sprague-Dawley rat assessed as protection against maximal electroshock-induced seizures; assay type: functional
[49] = tested on: Rattus norvegicus; assay: Anticonvulsant activity in albino Sprague-Dawley rat assessed as protection against maximal electroshock-induced seizures at 30 mg/kg, po after 0.25 hrs; assay type: functional, organism-based
[50] = tested on: Mus musculus; assay: Neurotoxicity in albino CF1 mouse assessed as behavioral impairment at 100 mg/kg, ip after 0.25 hrs by rotorod test; assay type: toxicity, organism-based; details: in vivo
[51] = tested on: Mus musculus; assay: Anticonvulsant activity in albino CF1 mouse assessed as protection against 44 mA current-induced seizure at 100 mg/kg, ip after 0.25 hrs by 6 Hz psychomotor test; assay type: functional, organism-based
[52] = tested on: Mus musculus; assay: Neurotoxicity in albino CF1 mouse assessed as behavioral impairment at 100 mg/kg, ip after 1 hr by rotorod test; assay type: toxicity, organism-based; details: in vivo
[53] = tested on: Mus musculus; assay: Anticonvulsant activity in albino CF1 mouse assessed as protection against 44 mA current-induced seizure at 100 mg/kg, ip after 2 hrs by 6 Hz psychomotor test; assay type: functional, organism-based
[54] = tested on: Mus musculus; assay: Neurotoxicity in albino CF1 mouse assessed as behavioral impairment at 100 mg/kg, ip after 0.5 hrs by rotorod test; assay type: toxicity, organism-based; details: in vivo
[55] = tested on: Mus musculus; assay: Anticonvulsant activity in albino CF1 mouse assessed as protection against maximal electroshock-induced seizures at 100 mg/kg, ip after 2 hrs; assay type: functional, organism-based
[56] = tested on: Mus musculus; assay: Neurotoxicity in albino CF1 mouse assessed as behavioral impairment at 100 mg/kg, ip after 2 hrs by rotorod test; assay type: toxicity, organism-based; details: in vivo

SMILES: CCCC(CCC)COC(=O)NCCCn1ccnc1
- Activity [1]: Non-toxic
- Time [2]: 0.5 h
- selectivity ratio [3]: 2
- Activity [4]: Active
- Activity [5]: Non-toxic
- TD50 [6]: 65 mg/kg
- Activity [7]: Non-toxic
- selectivity ratio [8]: 1
- ED50 [9]: > 70 mg/kg
- Time [10]: 0.5 h
- selectivity ratio [11]: 3.3
- Activity [12]: inactive
- Activity [13]: inactive
- Activity [14]: Non-toxic
- selectivity ratio [15]: 7.3
- Activity [16]: inactive
- Activity [17]: Active
- Activity [18]: Non-toxic
- Activity [19]: Non-toxic
- Activity [20]: Active
- Activity [21]: Active
- Activity [22]: Non-toxic
- Activity [23]: Non-toxic
- Activity [24]: Non-toxic
- ED50 [25]: > 88 mg/kg
- Activity [26]: inactive
- Activity [27]: inactive
- Activity [28]: inactive
- Activity [29]: Active
- Activity [30]: Toxic
- Activity [31]: inactive
- Activity [32]: Active
- selectivity ratio [33]: 0.9
- Activity [34]: Non-toxic
- Activity [35]: Non-toxic
- Activity [36]: Non-toxic
- Activity [37]: Toxic
- Activity [38]: Non-toxic
- Time [39]: 0.25 h
- ED50 [40]: 18 mg/kg
- ED50 [41]: 32 mg/kg
- TD50 [42]: 87 mg/kg
- Activity [43]: inactive
- Activity [44]: Active
- Activity [45]: Active
- Time [46]: 0.25 h
- Time [47]: 0.5 h
- ED50 [48]: 12 mg/kg

SMILES: CC(COC(=O)NCCCn1ccnc1)CC(C)(C)C (stereo not given)
- Time [2]: 0.5 h
- selectivity ratio [3]: 1.4
- Activity [5]: Non-toxic
- TD50 [6]: 60 mg/kg
- Activity [49]: inactive
- selectivity ratio [8]: 1
- Activity [50]: Toxic
- ED50 [9]: inactive
- Time [10]: 0.5 h
- Activity [51]: Active
- Activity [52]: Non-toxic
- Activity [12]: inactive
- Activity [13]: inactive
- Activity [14]: Non-toxic
- selectivity ratio [15]: 4.1
- Activity [53]: inactive
- Activity [16]: inactive
- Activity [18]: Non-toxic
- Activity [19]: Non-toxic
- Activity [54]: Toxic
- Activity [20]: Active
- Activity [22]: Non-toxic
- Activity [23]: Non-toxic
- Activity [24]: Non-toxic
- ED50 [25]: > 70 mg/kg
- Activity [26]: inactive
- Activity [27]: inactive
- Activity [29]: Active
- Activity [30]: Toxic
- Activity [55]: Active
- Activity [56]: Non-toxic
- Activity [34]: Non-toxic
- Activity [36]: Non-toxic
- Activity [38]: Non-toxic
- Time [39]: 0.25 h
- ED50 [40]: inactive
- ED50 [41]: 44 mg/kg
- TD50 [42]: 70 mg/kg
- Activity [43]: inactive
- Time [46]: 0.25 h
- Time [47]: 0.5 h
- ED50 [48]: 17 mg/kg
